Structures can show the parent of a compound that is named as a salt. ± gives the uncertainty stated by the source.
Tests used:
[1] = tested on: Klebsiella pneumoniae ATCC 13882; assay: final pH-related absorbance (A557-A630) after 24 h (absorbance units); higher = more ureolysis; extreme values may be limits of the assay
Protocol: (§1)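 Klebsiella pneumoniae ATCC 13882 (start OD600 0.05) grown in M9U medium with 40 mM urea and phenol red plus inhibitor, in triplicate in 96-well plates. A557 and OD630 were read every 15 min for 24 h. Ureolysis was followed as the pH-related A557-A630: onset time, Gompertz-fit rate and final value. Growth was followed as OD630.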

[2] = tested on: Klebsiella pneumoniae ATCC 13882; assay: rate of pH (A557-A630) increase, Gompertz fit (10^-4 s-1); higher = faster ureolysis; extreme values may be limits of the assay
Protocol: as §1

[3] = tested on: Klebsiella pneumoniae ATCC 13882; assay: final OD630 (growth) after 24 h; higher = more bacterial growth; extreme values may be limits of the assay
Protocol: as §1

[4] = tested on: Klebsiella pneumoniae ATCC 13882; assay: onset of ureolytic pH increase; higher = more delayed ureolysis (inhibition)
Protocol: as §1

## CCOC(=O)[C@@H](N)CS [L-cysteine ethyl ester hydrochloride]
[1]; 0.1 mM
  final pH-related absorbance: 0.394 ± 0.031
[1]; 1 mM
  final pH-related absorbance: 0
[1]; 10 mM
  final pH-related absorbance: 0
[2]; 0.1 mM
  rate of pH: 2.06 ± 0.11
[2]; 1 mM
  rate of pH: 0
[2]; 10 mM
  rate of pH: 0
[3]; 0.1 mM
  final OD630: 0.547 ± 0.018
[3]; 1 mM
  final OD630: 0.299 ± 0.003
[3]; 10 mM
  final OD630: 0.422 ± 0.045
[4]; 0.1 mM
  onset of ureolytic pH increase: 441.6 ± 4 min
[4]; 1 mM
  onset of ureolytic pH increase: > 900 min
[4]; 10 mM
  onset of ureolytic pH increase: > 900 min

## COC(=O)[C@@H](N)CS [L-cysteine methyl ester hydrochloride]
[1]; 0.1 mM
  final pH-related absorbance: 0.566 ± 0.001
[1]; 1 mM
  final pH-related absorbance: 0
[2]; 0.1 mM
  rate of pH: 1.55 ± 0.16
[2]; 1 mM
  rate of pH: 0
[3]; 0.1 mM
  final OD630: 0.457 ± 0.0075
[3]; 1 mM
  final OD630: 0.261 ± 0.0026
[4]; 0.1 mM
  onset of ureolytic pH increase: 595.25 ± 0.35 min
[4]; 1 mM
  onset of ureolytic pH increase: > 900 min

## N[C@@H](CS)C(=O)O [L-cysteine]
[1]; 0.1 mM
  final pH-related absorbance: 0.225 ± 0.0018
[1]; 1 mM
  final pH-related absorbance: 0
[1]; 10 mM
  final pH-related absorbance: 0
[2]; 0.1 mM
  rate of pH: 1.656 ± 0.0059
[2]; 1 mM
  rate of pH: 0
[2]; 10 mM
  rate of pH: 0
[3]; 0.1 mM
  final OD630: 0.431 ± 0.0025
[3]; 1 mM
  final OD630: 0.334 ± 0.008
[3]; 10 mM
  final OD630: 0.289 ± 0.01
[4]; 0.1 mM
  onset of ureolytic pH increase: 952 ± 1.8 min
[4]; 1 mM
  onset of ureolytic pH increase: > 1500 min
[4]; 10 mM
  onset of ureolytic pH increase: > 1500 min

## NC(=O)CC[C@H](N)C(=O)O [L-glutamine]
[1]; 0.009 mM
  final pH-related absorbance: 0.223 ± 0.0054
[1]; 0.091 mM
  final pH-related absorbance: 0.219 ± 0.005
[1]; 9.06 mM
  final pH-related absorbance: 0.222 ± 0.0029
[2]; 0.009 mM
  rate of pH: 1.675 ± 0.015
[2]; 0.091 mM
  rate of pH: 1.74 ± 0.052
[2]; 9.06 mM
  rate of pH: 1.78 ± 0.018
[3]; 0.009 mM
  final OD630: 0.515 ± 0.01
[3]; 0.091 mM
  final OD630: 0.549 ± 0.014
[3]; 9.06 mM
  final OD630: 0.531 ± 0.0093
[4]; 0.009 mM
  onset of ureolytic pH increase: 566.8 ± 3.4 min
[4]; 0.091 mM
  onset of ureolytic pH increase: 555.8 ± 1.8 min
[4]; 9.06 mM
  onset of ureolytic pH increase: 562.2 ± 3.9 min

## N[C@@H](Cc1c[nH]cn1)C(=O)O [L-histidine]
[1]; 0.1 mM
  final pH-related absorbance: 0.485 ± 0.022
[1]; 1 mM
  final pH-related absorbance: 0.506 ± 0.007
[1]; 10 mM
  final pH-related absorbance: 0.63 ± 0.016
[2]; 0.1 mM
  rate of pH: 3.03 ± 0.049
[2]; 1 mM
  rate of pH: 3.09 ± 0.27
[2]; 10 mM
  rate of pH: 1.12 ± 0.078
[3]; 0.1 mM
  final OD630: 0.709 ± 0.008
[3]; 1 mM
  final OD630: 0.706 ± 0.007
[3]; 10 mM
  final OD630: 0.715 ± 0.026
[4]; 0.1 mM
  onset of ureolytic pH increase: 368.4 ± 3.6 min
[4]; 1 mM
  onset of ureolytic pH increase: 411.2 ± 1.3 min
[4]; 10 mM
  onset of ureolytic pH increase: 588 ± 5.9 min

## O.O.O.O.O.O.O.O=S(=O)([O-])[O-].[Mg+2] [Magnesium sulfate]
[1]; 0.1 mM
  final pH-related absorbance: 0.151 ± 0.0021
[1]; 1 mM
  final pH-related absorbance: 0.153 ± 0.0018
[1]; 10 mM
  final pH-related absorbance: 0.177 ± 0.0039
[2]; 0.1 mM
  rate of pH: 2.16 ± 0.017
[2]; 1 mM
  rate of pH: 2.15 ± 0.021
[2]; 10 mM
  rate of pH: 2.01 ± 0.046
[3]; 0.1 mM
  final OD630: 0.553 ± 0.034
[3]; 1 mM
  final OD630: 0.508 ± 0.0073
[3]; 10 mM
  final OD630: 0.521 ± 0.0037
[4]; 0.1 mM
  onset of ureolytic pH increase: 568.1 ± 4.6 min
[4]; 1 mM
  onset of ureolytic pH increase: 571 ± 7.1 min
[4]; 10 mM
  onset of ureolytic pH increase: 555 ± 12 min

## CNC(N)=O [Methylurea]
[1]; 0.1 mM
  final pH-related absorbance: 0.17 ± 0.0022
[1]; 1 mM
  final pH-related absorbance: 0.174 ± 0.001
[1]; 10 mM
  final pH-related absorbance: 0.173 ± 0.001
[2]; 0.1 mM
  rate of pH: 1.54 ± 0.021
[2]; 1 mM
  rate of pH: 1.531 ± 0.014
[2]; 10 mM
  rate of pH: 1.551 ± 0.0041
[3]; 0.1 mM
  final OD630: 0.418 ± 0.0043
[3]; 1 mM
  final OD630: 0.427 ± 0.0012
[3]; 10 mM
  final OD630: 0.419 ± 0.0011
[4]; 0.1 mM
  onset of ureolytic pH increase: 615.2 ± 1.6 min
[4]; 1 mM
  onset of ureolytic pH increase: 615 ± 2.4 min
[4]; 10 mM
  onset of ureolytic pH increase: 622.5 ± 0.96 min

## NC(=O)CN(CC(=O)O)CC(=O)O [N-(2-acetamido)iminodiacetic acid]
[1]; 0.0035 mM
  final pH-related absorbance: 0.217 ± 0.0022
[1]; 0.0351 mM
  final pH-related absorbance: 0.218 ± 0.0017
[1]; 0.351 mM
  final pH-related absorbance: 0.219 ± 0.0049
[2]; 0.0035 mM
  rate of pH: 1.791 ± 0.016
[2]; 0.0351 mM
  rate of pH: 1.805 ± 0.018
[2]; 0.351 mM
  rate of pH: 1.77 ± 0.053
[3]; 0.0035 mM
  final OD630: 0.548 ± 0.048
[3]; 0.0351 mM
  final OD630: 0.519 ± 0.0043
[3]; 0.351 mM
  final OD630: 0.511 ± 0.0089
[4]; 0.0035 mM
  onset of ureolytic pH increase: 570 ± 8.3 min
[4]; 0.0351 mM
  onset of ureolytic pH increase: 562.4 ± 3 min
[4]; 0.351 mM
  onset of ureolytic pH increase: 581.8 ± 1.1 min

## O=C(O)CNc1ccc(O)cc1 [N-(4-Hydroxyphenyl)glycine]
[1]; 0.001 mM
  final pH-related absorbance: 0.183 ± 0.003
[1]; 0.011 mM
  final pH-related absorbance: 0.107 ± 0.013
[1]; 0.112 mM
  final pH-related absorbance: 0.331 ± 0.042
[2]; 0.001 mM
  rate of pH: 2.079 ± 0.0047
[2]; 0.011 mM
  rate of pH: 2.81 ± 0.3
[2]; 0.112 mM
  rate of pH: 0.632 ± 0.057
[3]; 0.001 mM
  final OD630: 0.438 ± 0.009
[3]; 0.011 mM
  final OD630: 0.357 ± 0.005
[3]; 0.112 mM
  final OD630: 0
[4]; 0.001 mM
  onset of ureolytic pH increase: 571.6 ± 1.1 min
[4]; 0.011 mM
  onset of ureolytic pH increase: 809 ± 15 min
[4]; 0.112 mM
  onset of ureolytic pH increase: 0 min

## O=C1C=CC(=O)N1c1ccccc1 [N-phenylmaleimide]
[1]; 0.039 mM
  final pH-related absorbance: 0.136 ± 0.0029
[1]; 0.39 mM
  final pH-related absorbance: 0
[1]; 3.9 mM
  final pH-related absorbance: 0
[2]; 0.039 mM
  rate of pH: 1.67 ± 0.056
[2]; 0.39 mM
  rate of pH: 0
[2]; 3.9 mM
  rate of pH: 0
[3]; 0.039 mM
  final OD630: 0.448 ± 0.07
[3]; 0.39 mM
  final OD630: 0
[3]; 3.9 mM
  final OD630: 0
[4]; 0.039 mM
  onset of ureolytic pH increase: 781 ± 9.3 min
[4]; 0.39 mM
  onset of ureolytic pH increase: > 1500 min
[4]; 3.9 mM
  onset of ureolytic pH increase: > 1500 min
